In US8710065B2, “Tricyclic inhibitors of kinases” (AbbVie Inc., priority 2011, dated 2014):

Each compound was assayed against T1, GST-tagged-Wee1 kinase (Homo sapiens, UniProt P30291) (assay: Wee1 time-resolved fluorescence equilibrium binding assay (displacement of Oregon Green-labeled ATP-competitive kinase probe)). Conditions: read-out: Wee-1 inhibition (Ki).
T1 construct: purchased Carnabio (Carna Biosciences) 05-177
Experimental: Wee1 kinase was assayed using a time-resolved fluorescence equilibrium binding assay monitoring displacement of a rapidly reversible Oregon Green-labeled ATP-competitive kinase probe (N-(2-(2-(2-(4-(4-(5-chloro-4-(2-(1-hydroxycyclobutyl)thiazol-5-yl)-1H-pyrrolo[2,3-b]pyridin-2-yl)phenyl)piperazin-1-yl)ethoxy)ethoxy)ethyl)-2′,7′-difluoro-3′,6′-dihydroxy-3-oxo-3H-spiro[isobenzofuran-1,9′-xanthene]-5-carboxamide) by competitive Wee1 inhibitors.
Table 1 depicts enzyme inhibition data (Ki) for exemplary compounds.

T1 sequence (P30291 whole entry): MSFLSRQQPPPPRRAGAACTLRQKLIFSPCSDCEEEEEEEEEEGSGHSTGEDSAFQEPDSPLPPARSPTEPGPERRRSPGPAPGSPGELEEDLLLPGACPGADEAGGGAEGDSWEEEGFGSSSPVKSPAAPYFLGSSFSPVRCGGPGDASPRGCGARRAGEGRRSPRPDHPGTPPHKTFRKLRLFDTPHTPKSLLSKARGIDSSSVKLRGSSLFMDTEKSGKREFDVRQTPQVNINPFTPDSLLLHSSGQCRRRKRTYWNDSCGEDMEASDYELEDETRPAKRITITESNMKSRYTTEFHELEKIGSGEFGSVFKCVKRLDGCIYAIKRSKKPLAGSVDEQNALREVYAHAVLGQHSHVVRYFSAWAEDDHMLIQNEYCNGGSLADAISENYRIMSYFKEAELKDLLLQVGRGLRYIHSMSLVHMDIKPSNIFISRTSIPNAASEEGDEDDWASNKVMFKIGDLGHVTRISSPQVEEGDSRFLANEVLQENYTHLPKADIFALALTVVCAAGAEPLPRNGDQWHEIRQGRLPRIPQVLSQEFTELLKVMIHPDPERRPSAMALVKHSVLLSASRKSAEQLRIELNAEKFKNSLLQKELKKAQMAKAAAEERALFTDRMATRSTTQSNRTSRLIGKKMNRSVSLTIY

Compared with `CN1CCN(c2ccc(Nc3ncc4c(=O)n(-c5ccccc5Cl)c5nccn5c4n3)cc2)CC1` [Example 1, 6-(2-chlorophenyl)-2-{[4-(4-methylpiperazin-1-yl)phenyl]amino}imidazo[1,2-a]pyrimido[5,4-e]pyrimidin-5(6H)-one], `CN1CCN(c2ccc(Nc3ncc4c(=O)n(-c5cccc(Cl)c5)c5nccn5c4n3)cc2)CC1` [Example 337, 6-(3-chlorophenyl)-2-{[4-(4-methylpiperazin-1-yl)phenyl]amino}imidazo[1,2-a]pyrimido[5,4-e]pyrimidin-5(6H)-one] is higher in Ki: < 10 nM for the first, > 100 nM for the second.

`O=c1c2cnc(Nc3ccc4c(c3)CNCC4)nc2n2ccnc2n1-c1ccccc1Cl` [Example 21, 6-(2-chlorophenyl)-2-(1,2,3,4-tetrahydroisoquinolin-7-ylamino)imidazo[1,2-a]pyrimido[5,4-e]pyrimidin-5(6H)-one] and `CN1Cc2cc(Nc3ncc4c(=O)n(-c5ccccc5Cl)c5nccn5c4n3)ccc2C(C)(C)C1` [Example 53, 6-(2-chlorophenyl)-2-[(2,4,4-trimethyl-1,2,3,4-tetrahydroisoquinolin-7-yl)amino]imidazo[1,2-a]pyrimido[5,4-e]pyrimidin-5(6H)-one] cannot be ordered by Ki: < 10 nM for the first, < 10 nM for the second.

`CN(C)CCOc1ccc(Nc2ncc3c(=O)n(-c4ccccc4Cl)c4nccn4c3n2)cc1` [Example 35, 6-(2-chlorophenyl)-2-({4-[2-(dimethylamino)ethoxy]phenyl}amino)imidazo[1,2-a]pyrimido[5,4-e]pyrimidin-5(6H)-one] and `CCN(CC)CCOc1ccc(Nc2ncc3c(=O)n(-c4ccccc4Cl)c4nccn4c3n2)cc1` [Example 44, 6-(2-chlorophenyl)-2-({4-[2-(diethylamino)ethoxy]phenyl}amino)imidazo[1,2-a]pyrimido[5,4-e]pyrimidin-5(6H)-one] cannot be ordered by Ki: < 10 nM for the first, < 10 nM for the second.

`CN1CCc2cc(Nc3ncc4c(=O)n(-c5c(Cl)cccc5Cl)c5nccn5c4n3)ccc2C1(C)C` [Example 150, 6-(2,6-dichlorophenyl)-2-[(1,1,2-trimethyl-1,2,3,4-tetrahydroisoquinolin-6-yl)amino]imidazo[1,2-a]pyrimido[5,4-e]pyrimidin-5(6H)-one] and `CC(=O)N1CCc2cc(Nc3ncc4c(=O)n(-c5c(Cl)cccc5Cl)c5nccn5c4n3)ccc2C1` [Example 331, 2-[(2-acetyl-1,2,3,4-tetrahydroisoquinolin-6-yl)amino]-6-(2,6-dichlorophenyl)imidazo[1,2-a]pyrimido[5,4-e]pyrimidin-5(6H)-one] cannot be ordered by Ki: < 10 nM for the first, < 10 nM for the second.

`CN(C)C1CCN(C(=O)c2ccc(Nc3ncc4c(=O)n(-c5c(Cl)cccc5Cl)c5nccn5c4n3)cc2)CC1` [Example 237, 6-(2,6-dichlorophenyl)-2-[(4-{[4-(dimethylamino)piperidin-1-yl]carbonyl}phenyl)amino]imidazo[1,2-a]pyrimido[5,4-e]pyrimidin-5(6H)-one] and `O=c1c2cnc(Nc3ccc(C4CCNC4)cc3)nc2n2ccnc2n1-c1c(Cl)cccc1Cl` (stereo not drawn) [Example 168, 6-(2,6-dichlorophenyl)-2-{[4-(pyrrolidin-3-yl)phenyl]amino}imidazo[1,2-a]pyrimido[5,4-e]pyrimidin-5(6H)-one] cannot be ordered by Ki: < 10 nM for the first, < 10 nM for the second.

`O=C(C1CC1)N1Cc2cc(Nc3ncc4c(=O)n(-c5c(F)cccc5Cl)c5nccn5c4n3)ccc2C2(CC2)C1` [Example 242, 6-(2-chloro-6-fluorophenyl)-2-{[2′-(cyclopropylcarbonyl)-2′,3′-dihydro-1′H-spiro[cyclopropane-1,4′-isoquinolin]-7′-yl]amino}imidazo[1,2-a]pyrimido[5,4-e]pyrimidin-5(6H)-one] and `CC(=O)N1Cc2cc(Nc3ncc4c(=O)n(-c5c(Cl)cccc5Cl)c5nccn5c4n3)ccc2C2(CC2)C1` [Example 207, 2-[(2′-acetyl-2′,3′-dihydro-1′H-spiro[cyclopropane-1,4′-isoquinolin]-7′-yl)amino]-6-(2,6-dichlorophenyl)imidazo[1,2-a]pyrimido[5,4-e]pyrimidin-5(6H)-one] cannot be ordered by Ki: < 10 nM for the first, < 10 nM for the second.

`O=c1c2cnc(Nc3ccc(N4CCC(N5CCOCC5)CC4)cc3)nc2n2ccnc2n1-c1ccccc1Cl` [Example 236, 6-(2-chlorophenyl)-2-({4-[4-(morpholin-4-yl)piperidin-1-yl]phenyl}amino)imidazo[1,2-a]pyrimido[5,4-e]pyrimidin-5(6H)-one] and `O=c1c2cnc(Nc3ccc(N4CCOCC4)cc3)nc2n2ccnc2n1-c1ccccc1Cl` [Example 10, 6-(2-chlorophenyl)-2-{[4-(morpholin-4-yl)phenyl]amino}imidazo[1,2-a]pyrimido[5,4-e]pyrimidin-5(6H)-one] cannot be ordered by Ki: < 10 nM for the first, < 10 nM for the second.

`O=c1c2cnc(Nc3ccc(N4CCNCC4)c(C(F)(F)F)c3)nc2n2ccnc2n1-c1ccccc1Cl` [Example 75, 6-(2-chlorophenyl)-2-{[4-(piperazin-1-yl)-3-(trifluoromethyl)phenyl]amino}imidazo[1,2-a]pyrimido[5,4-e]pyrimidin-5(6H)-one] and `CC(C)N1CCN(c2ccc(Nc3ncc4c(=O)n(-c5ccccc5Cl)c5nccn5c4n3)cc2F)CC1` [Example 33, 6-(2-chlorophenyl)-2-({3-fluoro-4-[4-(propan-2-yl)piperazin-1-yl]phenyl}amino)imidazo[1,2-a]pyrimido[5,4-e]pyrimidin-5(6H)-one] cannot be ordered by Ki: < 10 nM for the first, < 10 nM for the second.

`CC(C)(C)C(=O)N1Cc2cc(Nc3ncc4c(=O)n(-c5c(Cl)cccc5Cl)c5nccn5c4n3)ccc2C2(CC2)C1` [Example 276, 6-(2,6-dichlorophenyl)-2-{[2′-(2,2-dimethylpropanoyl)-2′,3′-dihydro-1′H-spiro[cyclopropane-1,4′-isoquinolin]-7′-yl]amino}imidazo[1,2-a]pyrimido[5,4-e]pyrimidin-5(6H)-one] and `C[C@@H]1CN(c2ccc(Nc3ncc4c(=O)n(-c5c(Cl)cccc5Cl)c5nccn5c4n3)cc2F)C[C@H](C)N1` [Example 128, 6-(2,6-dichlorophenyl)-2-({4-[(3R,5S)-3,5-dimethylpiperazin-1-yl]-3-fluorophenyl}amino)imidazo[1,2-a]pyrimido[5,4-e]pyrimidin-5(6H)-one] cannot be ordered by Ki: < 10 nM for the first, < 10 nM for the second.

First: CN1CCCN(c2ccc(Nc3ncc4c(=O)n(-c5ccccc5Cl)c5nccn5c4n3)cc2CO)CC1 [Example 100, 6-(2-chlorophenyl)-2-{[3-(hydroxymethyl)-4-(4-methyl-1,4-diazepan-1-yl)phenyl]amino}imidazo[1,2-a]pyrimido[5,4-e]pyrimidin-5(6H)-one]
Second: CN1CCN(c2c(F)cc(Nc3ncc4c(=O)n(-c5ccccc5Cl)c5nccn5c4n3)cc2F)CC1 [Example 347, 6-(2-chlorophenyl)-2-{[3,5-difluoro-4-(4-methylpiperazin-1-yl)phenyl]amino}imidazo[1,2-a]pyrimido[5,4-e]pyrimidin-5(6H)-one]
The Ki of the first is lower: < 10 nM for the first, > 100 nM for the second.

First: Cc1cnc2n(-c3ccccc3Cl)c(=O)c3cnc(Nc4ccc(N5CCN(C)CC5)cc4)nc3n12 [Example 25, 6-(2-chlorophenyl)-9-methyl-2-{[4-(4-methylpiperazin-1-yl)phenyl]amino}imidazo[1,2-a]pyrimido[5,4-e]pyrimidin-5(6H)-one]
Second: Cc1ccc(Nc2ncc3c(=O)n(-c4ccccc4Cl)c4nccn4c3n2)cc1 [Example 69, 6-(2-chlorophenyl)-2-[(4-methylphenyl)amino]imidazo[1,2-a]pyrimido[5,4-e]pyrimidin-5(6H)-one]
The Ki of the first is lower: < 10 nM for the first, 10 to 100 nM for the second. The first binds more tightly here.

`O=c1c2cnc(Nc3ccc(NCCc4c[nH]cn4)cc3)nc2n2ccnc2n1-c1ccccc1Cl` [Example 268, 6-(2-chlorophenyl)-2-[(4-{[2-(1H-imidazol-4-yl)ethyl]amino}phenyl)amino]imidazo[1,2-a]pyrimido[5,4-e]pyrimidin-5(6H)-one] and `CN(C)CCNc1ccc(Nc2ncc3c(=O)n(-c4ccccc4Cl)c4nccn4c3n2)cc1` [Example 234, 6-(2-chlorophenyl)-2-[(4-{[2-(dimethylamino)ethyl]amino}phenyl)amino]imidazo[1,2-a]pyrimido[5,4-e]pyrimidin-5(6H)-one] cannot be ordered by Ki: < 10 nM for the first, < 10 nM for the second.

`CCN(CC)CCCOc1ccc(Nc2ncc3c(=O)n(-c4c(Cl)cccc4Cl)c4nccn4c3n2)cc1F` [Example 149, 6-(2,6-dichlorophenyl)-2-({4-[3-(diethylamino)propoxy]-3-fluorophenyl}amino)imidazo[1,2-a]pyrimido[5,4-e]pyrimidin-5(6H)-one] and `O=c1c2cnc(Nc3ccc(N4CCC5(CC4)CNC5)cc3)nc2n2ccnc2n1-c1c(Cl)cccc1Cl` [Example 288, 2-{[4-(2,7-diazaspiro[3.5]non-7-yl)phenyl]amino}-6-(2,6-dichlorophenyl)imidazo[1,2-a]pyrimido[5,4-e]pyrimidin-5(6H)-one] cannot be ordered by Ki: < 10 nM for the first, < 10 nM for the second.

`CN1CCCC1CCNc1ccc(Nc2ncc3c(=O)n(-c4ccccc4Cl)c4nccn4c3n2)cc1` (stereo not drawn) [Example 192, 6-(2-chlorophenyl)-2-[(4-{[2-(1-methylpyrrolidin-2-yl)ethyl]amino}phenyl)amino]imidazo[1,2-a]pyrimido[5,4-e]pyrimidin-5(6H)-one] and `C[C@@H]1CCCN1CCc1ccc(Nc2ncc3c(=O)n(-c4ccccc4Cl)c4nccn4c3n2)cc1` [Example 359, 6-(2-chlorophenyl)-2-[(4-{2-[(2R)-2-methylpyrrolidin-1-yl]ethyl}phenyl)amino]imidazo[1,2-a]pyrimido[5,4-e]pyrimidin-5(6H)-one] fall in the same range of Ki: 10 to 100 nM for the first, 10 to 100 nM for the second.

Compared with `O=c1c2cnc(Nc3ccc(CN4CCOCC4)cc3)nc2n2ccnc2n1-c1ccccc1Cl` [Example 78, 6-(2-chlorophenyl)-2-{[4-(morpholin-4-ylmethyl)phenyl]amino}imidazo[1,2-a]pyrimido[5,4-e]pyrimidin-5(6H)-one], `O=c1c2cnc(Nc3cccc(CN4CCCC4)c3)nc2n2ccnc2n1-c1ccccc1Cl` [Example 11, 6-(2-chlorophenyl)-2-{[3-(pyrrolidin-1-ylmethyl)phenyl]amino}imidazo[1,2-a]pyrimido[5,4-e]pyrimidin-5(6H)-one] is higher in Ki: < 10 nM for the first, 10 to 100 nM for the second.
